In assay [1] the target is human GLP-1 receptor (hGLP-1R) (Homo sapiens, UniProt P43220). Nature of the assay: cAMP production (HTRF) in CHO cells expressing hGLP-1R. It counts as cell-based. Also noted: expressed in transfected cells. The conditions noted are these: for EC50: Table 7, peptides modified at position 20, cAMP in CHO hGLP-1R cells, geometric mean, read-out: hGLP-1R EC50; for % Relative Potency Ratio: Table 7, % GLP-1R activity relative to GLP-1 / % GlucR activity relative to glucagon. The method in brief:
(§1)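 Potency values represent EC50 from 4-parameter logistic curves of HTRF % Delta F signal. Receptor-expressing CHO cells (hGCGR 2×10^5 cells/mL, hGLP-1R 1×10^5 cells/mL) were exposed for 30 min at room temperature before two-step cAMP detection.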

The target of assay [2] is human glucagon receptor (hGCGR) (Homo sapiens, UniProt P47871). Nature of the assay: cAMP production (HTRF) in CHO cells expressing hGCGR. Conditions: Table 7, peptides modified at position 20; cAMP in CHO hGCGR cells; geometric mean; read-out: hGluc-R EC50. Also on record: expressed in transfected cells. It counts as cell-based. Summed up: as §1

We go through five compounds from patent US20250353891A1 (MEDIMMUNE LIMITED, priority 2022, published 2025).

Starred links: 1 amine or outer side, 2 acyl side, 3 side chain; linkers in the order of their positions; H or OH if unused. Non-standard residues stand in square brackets, D forms with d. Residues, ends and D or L forms follow the SMILES beside them. Groups on a side chain read outwards from the residue. *: point of attachment. C20 diacid = O=C(O)CCCCCCCCCCCCCCCCCCC(=O)*; C18 diacid = O=C(O)CCCCCCCCCCCCCCCCC(=O)*; γGlu = O=C(O)[C@H](CCC(=O)[*:2])N[*:1]; αMeF = C[C@](N)(Cc1ccccc1)C(=O)O; AEEA = NCCOCCOCC(=O)O; Aib = CC(C)(N)C(=O)O

Chain of human GLP-1 receptor (hGLP-1R) (P43220 24-463): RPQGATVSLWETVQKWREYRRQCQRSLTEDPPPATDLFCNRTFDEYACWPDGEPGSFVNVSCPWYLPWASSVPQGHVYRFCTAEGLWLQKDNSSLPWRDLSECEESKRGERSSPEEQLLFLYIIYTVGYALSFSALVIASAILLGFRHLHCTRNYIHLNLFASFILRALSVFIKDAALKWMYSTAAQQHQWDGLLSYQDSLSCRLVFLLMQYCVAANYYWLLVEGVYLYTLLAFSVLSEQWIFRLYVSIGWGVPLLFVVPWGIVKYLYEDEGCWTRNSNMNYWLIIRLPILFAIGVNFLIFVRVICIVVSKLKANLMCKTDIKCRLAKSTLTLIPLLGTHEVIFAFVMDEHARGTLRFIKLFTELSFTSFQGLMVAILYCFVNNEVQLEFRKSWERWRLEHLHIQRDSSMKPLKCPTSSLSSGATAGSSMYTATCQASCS
Chain of human glucagon receptor (hGCGR) (P47871 26-477): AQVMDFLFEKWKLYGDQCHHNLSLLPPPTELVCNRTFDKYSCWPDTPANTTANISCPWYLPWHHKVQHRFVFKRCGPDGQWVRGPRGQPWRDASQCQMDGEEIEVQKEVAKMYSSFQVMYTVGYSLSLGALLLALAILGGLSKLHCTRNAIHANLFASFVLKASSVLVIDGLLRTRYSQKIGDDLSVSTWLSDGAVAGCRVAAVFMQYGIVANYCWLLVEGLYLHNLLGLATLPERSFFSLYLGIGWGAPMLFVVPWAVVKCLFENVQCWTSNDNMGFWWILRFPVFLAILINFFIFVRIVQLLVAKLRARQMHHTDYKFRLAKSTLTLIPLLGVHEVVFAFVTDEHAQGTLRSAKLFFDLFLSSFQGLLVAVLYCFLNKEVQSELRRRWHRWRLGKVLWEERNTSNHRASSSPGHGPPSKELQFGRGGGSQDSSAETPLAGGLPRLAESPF

In the case of `CC[C@H](C)[C@H](NC(=O)C(C)(C)NC(=O)[C@H](CCC(N)=O)NC(=O)[C@@H](NC(=O)[C@](C)(Cc1ccccc1)NC(=O)[C@H](CC(=O)O)NC(=O)[C@H](CCCCNC(=O)COCCOCCNC(=O)COCCOCCNC(=O)CC[C@H](NC(=O)CCCCCCCCCCCCCCCCC(=O)O)C(=O)O)NC(=O)[C@H](C)NC(=O)[C@H](C)NC(=O)[C@H](CCCNC(=N)N)NC(=O)[C@H](CO)NC(=O)[C@H](CC(=O)O)NC(=O)[C@H](CC(C)C)NC(=O)[C@](C)(Cc1ccccc1)NC(=O)[C@H](CCCCN)NC(=O)[C@H](CO)NC(=O)[C@@H](NC(=O)[C@H](CC(=O)O)NC(=O)[C@H](CO)NC(=O)[C@@H](NC(=O)[C@](C)(Cc1ccccc1)NC(=O)[C@H](CO)NC(=O)CNC(=O)[C@H](Cc1c[nH]cn1)NC(=O)C(C)(C)NC(=O)[C@@H](N)Cc1c[nH]cn1)[C@@H](C)O)C(C)C)C(C)C)C(=O)N[C@@H](C)C(=O)N[C@@H](CC(N)=O)C(=O)N[C@H](C(=O)NCC(=O)NCC(N)=O)[C@@H](C)O` [Peptide 225] (H-H[Aib]HGS[αMeF]TSDVSK[αMeF]LDSRAAK([AEEA-AEEA-γGlu-C18 diacid])D[αMeF]VQ[Aib]IANTGG-NH2), in assay [1], the EC50 worked out at 0.0349 nM and the “% Relative Potency Ratio” value is 8.2. For the same compound, the EC50 in assay [2] worked out at 0.145 nM.
As for `CC[C@H](C)[C@H](NC(=O)C(C)(C)NC(=O)[C@H](CCC(=O)O)NC(=O)[C@@H](NC(=O)[C@](C)(Cc1ccccc1)NC(=O)[C@H](CC(=O)O)NC(=O)[C@H](CCCCNC(=O)COCCOCCNC(=O)COCCOCCNC(=O)CC[C@H](NC(=O)CCCCCCCCCCCCCCCCC(=O)O)C(=O)O)NC(=O)[C@H](C)NC(=O)[C@H](C)NC(=O)[C@H](CCCNC(=N)N)NC(=O)[C@H](CO)NC(=O)[C@H](CC(=O)O)NC(=O)[C@H](CC(C)C)NC(=O)[C@](C)(Cc1ccccc1)NC(=O)[C@H](CCCCN)NC(=O)[C@H](CO)NC(=O)[C@@H](NC(=O)[C@H](CC(=O)O)NC(=O)[C@H](CO)NC(=O)[C@@H](NC(=O)[C@](C)(Cc1ccccc1)NC(=O)[C@H](CO)NC(=O)CNC(=O)[C@H](Cc1c[nH]cn1)NC(=O)C(C)(C)NC(=O)[C@@H](N)Cc1c[nH]cn1)[C@@H](C)O)C(C)C)C(C)C)C(=O)N[C@@H](C)C(=O)N[C@@H](CC(N)=O)C(=O)N[C@H](C(N)=O)[C@@H](C)O` [Peptide 226] (H-H[Aib]HGS[αMeF]TSDVSK[αMeF]LDSRAAK([AEEA-AEEA-γGlu-C18 diacid])D[αMeF]VE[Aib]IANT-NH2), in assay [1], the EC50 was determined as 0.0827 nM and the “% Relative Potency Ratio” value worked out at 0.7. In addition, the EC50 in assay [2] worked out at 0.0274 nM.
As to `CC[C@H](C)[C@H](NC(=O)C(C)(C)NC(=O)[C@H](C)NC(=O)[C@@H](NC(=O)[C@](C)(Cc1ccccc1)NC(=O)[C@H](CC(=O)O)NC(=O)[C@H](CCCCNC(=O)COCCOCCNC(=O)COCCOCCNC(=O)CC[C@H](NC(=O)CCCCCCCCCCCCCCCCC(=O)O)C(=O)O)NC(=O)[C@H](C)NC(=O)[C@H](C)NC(=O)[C@H](CCCNC(=N)N)NC(=O)[C@H](CO)NC(=O)[C@H](CC(=O)O)NC(=O)[C@H](CC(C)C)NC(=O)[C@](C)(Cc1ccccc1)NC(=O)[C@H](CCCCN)NC(=O)[C@H](CO)NC(=O)[C@@H](NC(=O)[C@H](CC(=O)O)NC(=O)[C@H](CO)NC(=O)[C@@H](NC(=O)[C@](C)(Cc1ccccc1)NC(=O)[C@H](CO)NC(=O)CNC(=O)[C@H](Cc1c[nH]cn1)NC(=O)C(C)(C)NC(=O)[C@@H](N)Cc1c[nH]cn1)[C@@H](C)O)C(C)C)[C@@H](C)CC)C(=O)N[C@@H](C)C(=O)N[C@@H](CC(N)=O)C(=O)N[C@H](C(N)=O)[C@@H](C)O` [Peptide 227] (H-H[Aib]HGS[αMeF]TSDVSK[αMeF]LDSRAAK([AEEA-AEEA-γGlu-C18 diacid])D[αMeF]IA[Aib]IANT-NH2), in assay [1], the EC50 came to 0.0705 nM and the “% Relative Potency Ratio” value was determined as 0.8. For the same compound, the EC50 in assay [2] amounted to 0.0272 nM.
On the same counts, the results for `CC[C@H](C)[C@H](NC(=O)[C@H](Cc1c[nH]c2ccccc12)NC(=O)[C@H](CCC(N)=O)NC(=O)[C@@H](NC(=O)[C@](C)(Cc1ccccc1)NC(=O)[C@H](CC(=O)O)NC(=O)[C@H](CCCCNC(=O)COCCOCCNC(=O)COCCOCCNC(=O)CC[C@H](NC(=O)CC[C@H](NC(=O)CCCCCCCCCCCCCCCCCCC(=O)O)C(=O)O)C(=O)O)NC(=O)[C@H](C)NC(=O)[C@H](C)NC(=O)[C@H](CCCNC(=N)N)NC(=O)[C@H](CO)NC(=O)[C@H](CC(=O)O)NC(=O)[C@H](CC(C)C)NC(=O)[C@](C)(Cc1ccccc1)NC(=O)[C@H](CCCCN)NC(=O)[C@H](CO)NC(=O)[C@@H](NC(=O)[C@H](CC(=O)O)NC(=O)[C@H](CO)NC(=O)[C@@H](NC(=O)[C@](C)(Cc1ccccc1)NC(=O)[C@H](CO)NC(=O)CNC(=O)[C@H](Cc1c[nH]cn1)NC(=O)C(C)(C)NC(=O)[C@@H](N)Cc1c[nH]cn1)[C@@H](C)O)C(C)C)C(C)C)C(=O)N[C@@H](C)C(=O)N[C@@H](CC(N)=O)C(=O)N[C@H](C(N)=O)[C@@H](C)O` [Peptide 228] (H-H[Aib]HGS[αMeF]TSDVSK[αMeF]LDSRAAK([AEEA-AEEA-γGlu-γGlu-C20 diacid])D[αMeF]VQWIANT-NH2; N-terminus assumed) are 0.2 nM, 1.7 and 0.177 nM.
Turning to `CC[C@H](C)[C@H](NC(=O)C(C)(C)NC(=O)[C@H](CCC(N)=O)NC(=O)[C@@H](NC(=O)[C@](C)(Cc1ccccc1)NC(=O)[C@H](CC(=O)O)NC(=O)[C@H](CCCCNC(=O)COCCOCCNC(=O)COCCOCCNC(=O)CC[C@H](NC(=O)CC[C@H](NC(=O)CCCCCCCCCCCCCCCCC(=O)O)C(=O)O)C(=O)O)NC(=O)[C@H](C)NC(=O)[C@H](C)NC(=O)[C@H](CCCNC(=N)N)NC(=O)[C@H](CO)NC(=O)[C@H](CC(=O)O)NC(=O)[C@H](CC(C)C)NC(=O)[C@](C)(Cc1ccccc1)NC(=O)[C@H](CCCCN)NC(=O)[C@H](CO)NC(=O)[C@@H](NC(=O)[C@H](CC(=O)O)NC(=O)[C@H](CO)NC(=O)[C@@H](NC(=O)[C@](C)(Cc1ccccc1)NC(=O)[C@H](CO)NC(=O)CNC(=O)[C@H](Cc1c[nH]cn1)NC(=O)C(C)(C)NC(=O)[C@@H](N)Cc1c[nH]cn1)[C@@H](C)O)C(C)C)C(C)C)C(=O)N[C@@H](C)C(=O)N[C@@H](CC(N)=O)C(=O)N[C@H](C(N)=O)[C@@H](C)O` [Peptide 231] (H-H[Aib]HGS[αMeF]TSDVSK[αMeF]LDSRAAK([AEEA-AEEA-γGlu-γGlu-C18 diacid])D[αMeF]VQ[Aib]IANT-NH2), in assay [1], the EC50 turned out to be 0.0499 nM and the “% Relative Potency Ratio” value was determined as 2.3. The EC50 in assay [2] worked out at 0.0585 nM.
